In US20230107642A1 (Erasca, Inc., priority 2020, published 2023):

Target: T1, K-Ras G12C (Homo sapiens, UniProt P01116, G12C)
T1 construct: This protein contained 188 amino acids in total, including an N-terminal 6-Histidine tag; made in house; host or cells: E. coli BL21
Assay: CAF assay (% CAF; method in Example 7, not in this part)
Type: binding
Details: 10 uM compound, 1 h incubation

| SMILES | % CAF @ 10 uM, 1h [%] |
| --- | --- |
| C=CC(=O)N1CCN(c2nc(=O)n3c4c(c(-c5cc(Cl)c(F)cc5F)c(Cl)cc24)SC[C@@H](OC)C3)CC1 [Example 543, (3S)-8-(4-acryloylpiperazin-1-yl)-10-chloro-11-(5-chloro-2,4-difluorophenyl)-3-methoxy-3,4-dihydro-2H,6H-[1,4]thiazepino[2,3,4-ij]quinazolin-6-one] | 97 |
| C=CC(=O)N1C[C@H](C)N(c2nc(=O)n3c4c(c(-c5ccc(F)cc5F)c(Cl)cc24)SC[C@@H]3CN2CCN(CC(F)F)CC2)C[C@H]1C [Example 550, (3S)-7-((2S,5R)-4-acryloyl-2,5-dimethylpiperazin-1-yl)-9-chloro-3-((4-(2,2-difluoroethyl)piperazin-1-yl)methyl)-10-(2,4-difluorophenyl)-2H-[1,4]thiazino[2,3,4-ij]quinazolin-5(3H)-one] | 91.6 |
| C=CC(=O)N1C[C@H](C)N(c2nc(=O)n3c4c(c(-c5ccc(F)cc5F)c(Cl)cc24)SC[C@@H]3CN2CCN(C3CC3)CC2)C[C@H]1C [Example 551, (3S)-7-((2S,5R)-4-acryloyl-2,5-dimethylpiperazin-1-yl)-9-chloro-3-((4-cyclopropylpiperazin-1-yl)methyl)-10-(2,4-difluorophenyl)-2H-[1,4]thiazino[2,3,4-ij]quinazolin-5(3H)-one] | 53.4 |
| C=CC(=O)N1C[C@H](C)N(c2nc(=O)n3c4c(c(-c5ccc(F)cc5)c(Cl)cc24)SC[C@@H]3COCCOC)C[C@H]1C [Example 558, (S)-7-((2S,5R)-4-acryloyl-2,5-dimethylpiperazin-1-yl)-9-chloro-10-(4-fluorophenyl)-3-((2-methoxyethoxy)methyl)-2H-[1,4]thiazino[2,3,4-ij]quinazolin-5(3H)-one] | 64.3 |
| C=CC(=O)N1[C@H](C)CN(c2nc(=O)n3c4c(c(-c5cc(Cl)c(F)cc5F)c(C(F)(F)F)cc24)SC[C@@H]3COC)C[C@@H]1C [Example 559, (3S)-7-((3S,5R)-4-acryloyl-3,5-dimethylpiperazin-1-yl)-10-(5-chloro-2,4-difluorophenyl)-3-(methoxymethyl)-9-(trifluoromethyl)-2H-[1,4]thiazino[2,3,4-ij]quinazolin-5(3H)-one] | 83.8 |
| C=CC(=O)N1[C@H](C)CN(c2nc(=O)n3c4c(c(-c5ccc(F)cc5F)c(C(F)(F)F)cc24)SC[C@@H]3CN2C[C@@H]3C[C@H]2CO3)C[C@@H]1C [Example 560, (3S)-3-(((1S,4S)-2-oxa-5-azabicyclo[2.2.1]heptan-5-yl)methyl)-7-((3S,5R)-4-acryloyl-3,5-dimethylpiperazin-1-yl)-10-(2,4-difluorophenyl)-9-(trifluoromethyl)-2,3-dihydro-5H-[1,4]thiazino[2,3,4-ij]quinazolin-5-one] | 95.6 |
| C=CC(=O)N1C[C@H](C)N(c2nc(=O)n3c4c(c(-c5ccc(F)cc5F)c(C(F)(F)F)cc24)SC[C@@H]3CN2CCN(CC#N)CC2)C[C@H]1C [Example 561, 2-(4-(((3S)-7-((2S,5R)-4-acryloyl-2,5-dimethylpiperazin-1-yl)-10-(2,4-difluorophenyl)-5-oxo-9-(trifluoromethyl)-3,5-dihydro-2H-[1,4]thiazino[2,3,4-ij]quinazolin-3-yl)methyl)piperazin-1-yl)acetonitrile] | 10.4 |
| C=CC(=O)N1C[C@H](C)N(c2nc(=O)n3c4c(c(-c5ccc(F)cc5F)c(C(F)(F)F)cc24)SC[C@@H]3CN2CCN(CC(F)F)CC2)C[C@H]1C [Example 562, (3S)-7-((2S,5R)-4-acryloyl-2,5-dimethylpiperazin-1-yl)-3-((4-(2,2-difluoroethyl)piperazin-1-yl)methyl)-10-(2,4-difluorophenyl)-9-(trifluoromethyl)-2H-[1,4]thiazino[2,3,4-ij]quinazolin-5(3H)-one] | 83.6 |
| C=CC(=O)N1[C@H](C)CN(c2nc(=O)n3c4c(c(-c5cc(Cl)c(F)cc5F)c(C(F)(F)F)cc24)SC[C@@H]3COCOC)C[C@@H]1C [Example 567, (3S)-7-((3S,5R)-4-acryloyl-3,5-dimethylpiperazin-1-yl)-10-(5-chloro-2,4-difluorophenyl)-3-((methoxymethoxy)methyl)-9-(trifluoromethyl)-2H-[1,4]thiazino[2,3,4-ij]quinazolin-5(3H)-one] | 64.4 |
| C=CC(=O)N1[C@H](C)CN(c2nc(=O)n3c4c(c(-c5cc(Cl)c(F)cc5F)c(C(F)(F)F)cc24)SC[C@@H]3CO)C[C@@H]1C [Example 568, (3S)-7-((3S,5R)-4-acryloyl-3,5-dimethylpiperazin-1-yl)-10-(5-chloro-2,4-difluorophenyl)-3-(hydroxymethyl)-9-(trifluoromethyl)-2H-[1,4]thiazino[2,3,4-ij]quinazolin-5(3H)-one] | 52.3 |
| C=CC(=O)N1C2CC(=O)CC1CN(c1nc(=O)n3c4c(c(-c5ccc(F)cc5F)c(C(F)(F)F)cc14)SC[C@@H]3COC)C2 [Example 571, (3S)-7-(9-acryloyl-7-oxo-3,9-diazabicyclo[3.3.1]nonan-3-yl)-10-(2,4-difluorophenyl)-3-(methoxymethyl)-9-(trifluoromethyl)-2H-[1,4]thiazino[2,3,4-ij]quinazolin-5(3H)-one] | 95.2 |
| C=CC(=O)N1CCN(c2nc(=O)n3c4c(c(-c5cc(Cl)c(F)cc5F)c(C(F)(F)F)cc24)SC[C@@H]3COC)CC1 [Example 572, (3S)-7-(4-acryloylpiperazin-1-yl)-10-(5-chloro-2,4-difluorophenyl)-3-(methoxymethyl)-9-(trifluoromethyl)-2H-[1,4]thiazino[2,3,4-ij]quinazolin-5(3H)-one] | 93.6 |
| C=CC(=O)N1C[C@H](C)N(c2nc(=O)n3c4c(c(-c5ccc(F)cc5)c(Cl)cc24)SC[C@@H]3COC)C[C@H]1C [Example 573, (S)-7-((2S,5R)-4-acryloyl-2,5-dimethylpiperazin-1-yl)-9-chloro-10-(4-fluorophenyl)-3-(methoxymethyl)-2H-[1,4]thiazino[2,3,4-ij]quinazolin-5(3H)-one] | 76.4 |
| C=CC(=O)N1C[C@H](C)N(c2nc(=O)n3c4c(c(-c5ccc(F)cc5)c(C(F)(F)F)cc24)SC[C@@H]3CN2CCN(CC(F)F)CC2)C[C@H]1C [Example 574, (S)-7-((2S,5R)-4-acryloyl-2,5-dimethylpiperazin-1-yl)-3-((4-(2,2-difluoroethyl)piperazin-1-yl)methyl)-10-(4-fluorophenyl)-9-(trifluoromethyl)-2H-[1,4]thiazino[2,3,4-ij]quinazolin-5(3H)-one] | 83.2 |
| C=CC(=O)N1C[C@H](C)N(c2nc(=O)n3c4c(c(-c5ccc(F)cc5F)c(C(F)(F)F)cc24)SC[C@@H]3CN2CCN(CC(N)=O)CC2)C[C@H]1C [Example 575, 2-(4-(((3S)-7-((2S,5R)-4-acryloyl-2,5-dimethylpiperazin-1-yl)-10-(2,4-difluorophenyl)-5-oxo-9-(trifluoromethyl)-3,5-dihydro-2H-[1,4]thiazino[2,3,4-ij]quinazolin-3-yl)methyl)piperazin-1-yl)acetamide] | 89.5 |
